Experimental data from patent publication US8183239B2, “Substituted piperazines and piperidines as modulators of the neuropeptide Y2 receptor” (Janssen Pharmaceutica NV, priority 2005, dated 2012).

Biological target: T1, Y2 receptors (Homo sapiens, UniProt P49146)
T1 construct: endogenous in cells; host or cells: KAN-Ts cells (membranes)
T1 sequence (P49146 1-381): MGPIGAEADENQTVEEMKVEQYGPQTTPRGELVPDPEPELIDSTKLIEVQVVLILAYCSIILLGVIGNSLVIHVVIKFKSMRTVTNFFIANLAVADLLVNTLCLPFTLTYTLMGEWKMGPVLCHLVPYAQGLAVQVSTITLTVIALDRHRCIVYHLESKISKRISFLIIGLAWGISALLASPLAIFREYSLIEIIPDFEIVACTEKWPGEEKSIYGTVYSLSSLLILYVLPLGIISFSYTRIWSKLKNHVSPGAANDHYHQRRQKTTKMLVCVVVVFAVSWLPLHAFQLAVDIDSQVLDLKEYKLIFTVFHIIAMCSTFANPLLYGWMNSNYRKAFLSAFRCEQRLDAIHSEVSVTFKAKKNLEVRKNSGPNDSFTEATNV
Assay: Radioligand binding assay ([125I]PYY, KAN-Ts cell membranes)
Details: Table 2, [125I]PYY 80 pM, average of results, read-out: IC50
Procedure, shortened: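 IC50 values are means of three to eight experiments run in duplicate, fitted sigmoidally against specific binding (defined by […]). Competition used 80 pM [^125I]PYY for 1 h at room temperature on KAN-Ts membranes carrying native Y2, with filtration and scintillation counting.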

SMILES	IC50 [nM]
CCC(CC)C(=O)Nc1ccc(N2CCC(C(C(=O)N3CC(F)(F)C3)c3ccccc3)CC2)c(F)c1 (centres unmarked) [Example 207, N-(4-{4-[2-(3,3-Difluoro-azetidin-1-yl)-2-oxo-1-phenyl-ethyl]-piperidin-1-yl}-3-fluoro-phenyl)-2-ethyl-butyramide]	70
CCC(CC)C(=O)Nc1ccc(N2CCC(C(C(=O)N3CCC(F)(F)CC3)c3ccccc3)CC2)c(F)c1 (centres unmarked) [Example 208, N-(4-{4-[2-(4,4-Difluoro-piperidin-1-yl)-2-oxo-1-phenyl-ethyl]-piperidin-1-yl}-3-fluoro-phenyl)-2-ethyl-butyramide]	20
CCC(CC)C(=O)Nc1ccc(N2CCC(C(C(=O)N3CCC(F)(F)C3)c3ccccc3)CC2)c(F)c1 (centres unmarked) [Example 210, N-(4-{4-[2-(3,3-Difluoro-pyrrolidin-1-yl)-2-oxo-1-phenyl-ethyl]-piperidin-1-yl}-3-fluoro-phenyl)-2-ethyl-butyramide]	25
CCC(CC)C(=O)Nc1ccc(N2CCC(C(C(=O)N3CCCC3)c3ccccc3)CC2)c(F)c1 (centres unmarked) [Example 211, 2-Ethyl-N-{3-fluoro-4-[4-(2-oxo-1-phenyl-2-pyrrolidin-1-yl-ethyl)-piperidin-1-yl]-phenyl}-butyramide]	26
CCC(CC)C(=O)Nc1ccc(N2CCC(C(C(=O)NC3CC3)c3ccccc3)CC2)c(F)c1 (centres unmarked) [Example 212, N-{4-[4-(Cyclopropylcarbamoyl-phenyl-methyl)-piperidin-1-yl]-3-fluoro-phenyl}-2-ethyl-butyramide]	55
CCC(CC)C(=O)Nc1ccc(N2CCC(C(C(=O)N3CCCCC3)c3ccccc3)CC2)c(F)c1 (centres unmarked) [Example 215, 2-Ethyl-N-{3-fluoro-4-[4-(2-oxo-1-phenyl-2-piperidin-1-yl-ethyl)-piperidin-1-yl]-phenyl}-butyramide]	100
CCC(CC)C(=O)Nc1ccc(N2CCC(C(C(=O)N3CCN(C)CC3)c3ccccc3)CC2)c(F)c1 (centres unmarked) [Example 216, 2-Ethyl-N-(3-fluoro-4-{4-[2-(4-methyl-piperazin-1-yl)-2-oxo-1-phenyl-ethyl]-piperidin-1-yl}-phenyl)-butyramide]	≥ 10000
CCC(CC)C(=O)Nc1ccc(N2CCC(C(C(=O)N(CC)CC)c3ccccc3)CC2)c(C#N)c1 (centres unmarked) [Example 217, N-{3-Cyano-4-[4-(diethylcarbamoyl-phenyl-methyl)-piperidin-1-yl]-phenyl}-2-ethyl-butyramide]	10
CCC(CC)C(=O)Nc1ccc(N2CCC(C(C(=O)N(CC)CC)c3ccccc3)CC2)c(Br)c1 (centres unmarked) [Example 219, N-{3-Bromo-4-[4-(diethylcarbamoyl-phenyl-methyl)-piperidin-1-yl]-phenyl}-2-ethyl-butyramide]	37
CCN(CC)C(=O)C(c1ccccc1)C1CCN(c2ccc(NC(=O)C3CCCC3)cc2F)CC1 (centres unmarked) [Example 220, Cyclopentanecarboxylic acid {4-[4-(diethylcarbamoyl-phenyl-methyl)-piperidin-1-yl]-3-fluoro-phenyl}-amide]	40
CCN(CC)C(=O)C(c1ccccc1)C1CCN(c2ccc(NC(=O)C3CCC3)cc2F)CC1 (centres unmarked) [Example 222, Cyclobutanecarboxylic acid {4-[4-(diethylcarbamoyl-phenyl-methyl)-piperidin-1-yl]-3-fluoro-phenyl}-amide]	63
CCC(CC)C(=O)Nc1cc(F)c(N2CCN(C(C(=O)N(CC)CC)c3ccccc3)CC2)cc1F (centres unmarked) [Example 225, N-{4-[4-(Diethylcarbamoyl-phenyl-methyl)-piperazin-1-yl]-2,5-difluoro-phenyl}-2-ethyl-butyramide]	107
CCC(CC)C(=O)Nc1cc(F)c(N2CCN(C(C(=O)N(CC)CC)c3ccccc3)CC2)c(F)c1 (centres unmarked) [Example 226, N-{4-[4-(Diethylcarbamoyl-phenyl-methyl)-piperazin-1-yl]-3,5-difluoro-phenyl}-2-ethyl-butyramide]	95
CCC(CC)C(=O)Nc1ccc(N2CCN(C(C(=O)N(CC)CC)c3ccccc3)CC2)c(C#N)c1F (centres unmarked) [Example 227, N-{3-Cyano-4-[4-(diethylcarbamoyl-phenyl-methyl)-piperazin-1-yl]-2-fluoro-phenyl}-2-ethyl-butyramide]	116
CCN(CC)C(=O)C(c1ccccc1)N1CCN(c2ccc(NC(=O)C3CC4CCC3C4)cc2F)CC1 (centres unmarked) [Example 228, Bicyclo[2.2.1]heptane-2-carboxylic acid {4-[4-(diethylcarbamoyl-phenyl-methyl)-piperazin-1-yl]-3-fluoro-phenyl}-amide]	120
CCC(CC)C(=O)Nc1ccc(N2CCN(C(C(=O)N(CC)CC)c3ccccc3)CC2)c(C)c1 (centres unmarked) [Example 232, N-{4-[4-(Diethylcarbamoyl-phenyl-methyl)-piperazin-1-yl]-3-methyl-phenyl}-2-ethyl-butyramide]	210
CCC(CC)C(=O)Nc1ccc(N2CCC(C(C#N)c3ccccc3)CC2)c(F)c1 (centres unmarked) [Example 234, N-{4-[4-(Cyano-phenyl-methyl)-piperidin-1-yl]-3-fluoro-phenyl}-2-ethyl-butyramide]	280
CCN(CC)C(=O)C(c1ccccc1)N1CCN(c2ccc(NC(=O)C3CCCC3)cc2OC)CC1 (centres unmarked) [Example 238, Cyclopentanecarboxylic acid {4-[4-(diethylcarbamoyl-phenyl-methyl)-piperazin-1-yl]-3-methoxy-phenyl}-amide]	1300

Second part, the compound after the results:

IC50 [nM]	SMILES
300	CCC(CC)C(=O)Nc1ccc(N2CCC(C(C(=O)N(CC)CC)c3ccccc3)CC2)nc1 (centres unmarked) [Example 205, N-[4-(Diethylcarbamoyl-phenyl-methyl)-3,4,5,6-tetrahydro-2H-[1,2′]bipyridinyl-5′-yl]-2-ethyl-butyramide]
20	CCC(CC)C(=O)Nc1ccc(N2CCC(C(C(=O)N3CCC(F)CC3)c3ccccc3)CC2)c(F)c1 (centres unmarked) [Example 206, 2-Ethyl-N-(3-fluoro-4-{4-[2-(4-fluoro-piperidin-1-yl)-2-oxo-1-phenyl-ethyl]-piperidin-1-yl}-phenyl)-butyramide]
100	CCC(CC)C(=O)Nc1ccc(N2CCC(C(C(=O)N3CCC3)c3ccccc3)CC2)c(F)c1 (centres unmarked) [Example 209, N-{4-[4-(2-Azetidin-1-yl-2-oxo-1-phenyl-ethyl)-piperidin-1-yl]-3-fluoro-phenyl}-2-ethyl-butyramide]
30	CCC(CC)C(=O)Nc1ccc(N2CCC(C(C(=O)Nc3nc(C)cs3)c3ccccc3)CC2)c(F)c1 (centres unmarked) [Example 213, 2-Ethyl-N-(3-fluoro-4-{4-[(4-methyl-thiazol-2-ylcarbamoyl)-phenyl-methyl]-piperidin-1-yl}-phenyl)-butyramide]
40	CCC(CC)C(=O)Nc1ccc(N2CCC(C(C(=O)OC)c3ccccc3)CC2)c(F)c1 (centres unmarked) [Example 214, {1-[4-(2-Ethyl-butyrylamino)-2-fluoro-phenyl]-piperidin-4-yl}-phenyl-acetic acid methyl ester]
48	CCN(CC)C(=O)C(c1ccccc1)N1CCN(c2ccc(NC(=O)C3CCCC3)cc2C#N)CC1 (centres unmarked) [Example 221, Cyclopentanecarboxylic acid {3-cyano-4-[4-(diethylcarbamoyl-phenyl-methyl)-piperazin-1-yl]-phenyl}-amide]
80	CCC(CC)C(=O)Nc1ccc(N2CCN(C(C(=O)N(CC)CC)c3ccccc3)CC2)c(Br)c1 (centres unmarked) [Example 223, N-{3-Bromo-4-[4-(diethylcarbamoyl-phenyl-methyl)-piperazin-1-yl]-phenyl}-2-ethyl-butyramide]
92	CCN(CC)C(=O)C(c1ccccc1)N1CCN(c2ccc(NC(=O)C3CCCC3)c(F)c2C#N)CC1 (centres unmarked) [Example 224, Cyclopentanecarboxylic acid {3-cyano-4-[4-(diethylcarbamoyl-phenyl-methyl)-piperazin-1-yl]-2-fluoro-phenyl}-amide]
120	CCN(CC)C(=O)C(c1ccccc1)C1CCN(c2ccc(NC(=O)C3CC3)cc2F)CC1 (centres unmarked) [Example 229, Cyclopropanecarboxylic acid {4-[4-(diethylcarbamoyl-phenyl-methyl)-piperidin-1-yl]-3-fluoro-phenyl}-amide]
150	CCN(CC)C(=O)C(c1ccccc1)N1CCN(c2c(F)cc(NC(=O)C3CCCC3)cc2F)CC1 (centres unmarked) [Example 230, Cyclopentanecarboxylic acid {4-[4-(diethylcarbamoyl-phenyl-methyl)-piperazin-1-yl]-3,5-difluoro-phenyl}-amide]
200	CCN(CC)C(=O)C(c1ccccc1)N1CCN(c2ccc(NC(=O)C3CCCC3)cc2C)CC1 (centres unmarked) [Example 231, Cyclopentanecarboxylic acid {4-[4-(diethylcarbamoyl-phenyl-methyl)-piperazin-1-yl]-3-methyl-phenyl}-amide]
270	CCC(CC)C(=O)Nc1ccc(N2CCN(C(C(=O)N(CC)CC)c3ccccc3)CC2)c(F)c1F (centres unmarked) [Example 233, N-{4-[4-(Diethylcarbamoyl-phenyl-methyl)-piperazin-1-yl]-2,3-difluoro-phenyl}-2-ethyl-butyramide]
900	CCNC(=O)C(c1ccccc1)N1CCN(c2c(F)cc(NC(=O)[C@@H]3CCOC3)cc2F)CC1 (stereo partly drawn) [Example 236, (R)-Tetrahydro-furan-3-carboxylic acid {4-[4-(ethylcarbamoyl-phenyl-methyl)-piperazin-1-yl]-3,5-difluoro-phenyl}-amide]
1100	CCC(CC)C(=O)Nc1ccc(N2CCN(C(C(=O)N(CC)CC)c3ccccc3)CC2)cc1C#N (centres unmarked) [Example 237, N-{2-Cyano-4-[4-(diethylcarbamoyl-phenyl-methyl)-piperazin-1-yl]-phenyl}-2-ethyl-butyramide]
